In publication PMC7997574, “Lead Optimization of Benzoxazolone Carboxamides as Orally Bioavailable and CNS Penetrant Acid Ceramidase Inhibitors” (Journal of Medicinal Chemistry, 2020) one finds half-life, solubility and IC50 data, which are given here for 3 molecules.

Data set [1] is described as follows: In vitro plasma stability study. As to conditions: mouse plasma; read-out: mouse plasma stability t1/2. It counts as in vitro ADME. The essentials:
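Compound at 2 μM final incubated in mouse plasma at 37 °C for up to 120 min, sampled at 0–120 min and quenched in cold MeCN with internal standard. Remaining compound quantified by LC/MS/MS; t1/2 fitted from response vs time; mean of ≥2 experiments.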

A short description of data set [2]: Aqueous kinetic solubility assay. As to conditions: PBS, pH 7.4. The format is physicochemical. An outline of the steps:
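Kinetic solubility from 10 mM MeCN stock spiked into PBS pH 7.4 at 250 μM target, shaken 1 h at 25 °C, then centrifuged. Dissolved compound in supernatant quantified by UPLC/MS with UV at 215 nm; mean of ≥2 experiments.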

Data set [3] is described as follows: Chemical stability assay in PBS pH 7.4. Particulars: phosphate-buffered saline, read-out: chemical stability t1/2. It counts as physicochemical. On the procedure: Chemical stability of selected compounds was evaluated under physiological pH conditions (0.01 M phosphate-buffered saline, pH 7.4) for up to 8 h. The buffer was added with 10% MeCN. Stock solutions of each compound (10 mM) were freshly prepared in MeCN. Each compound was incubated at a final concentration of 1 μM in preheated buffer (37 °C). The sample solutions were divided into aliquots in glass vials (preheated at 37 °C) for each time point. The samples were maintained at 37 °C in the UPLC/MS autosampler during the study (no shaking). A reference solution of each compound (final concentration: 1 μM) in preheated MeCN was prepared from the stock solutions and maintained at 37 °C in the UPLC/MS autosampler during the study. For each time point, the samples were analyzed directly by LC/MS without any further sample preparation. The samples were analyzed by integrating the corresponding MRM peak areas. The relative compound concentration was calculated by dividing the peak area at each time point by the peak area at t = 0 min. The reference solution was analyzed at the beginning (t = 0 min) and at the end of the study (t = 8 h). The apparent half-life (t1/2) of the disappearance of the compound was calculated using the best fitting equation by GraphPad Prism (GraphPad Software, Inc., USA). The analyses were performed on a Waters ACQUITY UPLC/MS TQD system consisting of a triple quadrupole detector (TQD) MS equipped with an ESI interface and a photodiode array detector. The analyses were run on an ACQUITY UPLC BEH C18 1.7 μm 2.1 × 50 mm column with a VanGuard BEH C18 1.7 μm preolumn at 40 °C. For each compound, the appropriate mobile phase was chosen. ESI was applied in positive mode. Values are the mean of at least two independent experiments performed in two technical replicates.

Another data set has as its target T1, AC (Homo sapiens, UniProt Q13510).
T1 sequence (Q13510 22-395): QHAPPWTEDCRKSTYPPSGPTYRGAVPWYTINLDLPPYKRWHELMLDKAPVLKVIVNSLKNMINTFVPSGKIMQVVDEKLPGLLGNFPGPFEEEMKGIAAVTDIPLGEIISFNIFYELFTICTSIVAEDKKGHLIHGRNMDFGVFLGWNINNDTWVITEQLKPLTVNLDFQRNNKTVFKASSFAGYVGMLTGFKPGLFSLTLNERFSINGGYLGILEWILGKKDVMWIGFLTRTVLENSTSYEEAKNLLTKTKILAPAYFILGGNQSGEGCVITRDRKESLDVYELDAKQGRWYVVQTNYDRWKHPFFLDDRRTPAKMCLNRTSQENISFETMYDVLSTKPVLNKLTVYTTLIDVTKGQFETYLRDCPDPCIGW
Kind of data set: Fluorogenic hAC assay on hAC-enriched lysate of HEK293 cells. The format is biochemical. Details: expressed in transfected cells. An outline of the steps: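 Lysosome-enriched lysate (2 μg protein) from HEK293 cells stably expressing hAC, in 25 mM NaOAc pH 4.5. Pre-incubated 10 min with compound, then incubated 3 h at 37 °C with fluorogenic substrate Rbm14–12 (5 μM final, ~KM). Fluorescence (355/460 nm) read after NaIO4 development; IC50 by nonlinear regression, mean of ≥3 experiments.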

The mark [4] stands for this setting: supplementary csv, read-out: hAC, IC50.

Structures can show the parent of a compound that is named as a salt. Where two headings read alike, the source gives them in different places.

Take `O=C(NCCCCc1ccccc1)n1c2c(oc1=O)CNCC2` [17b, 2-Oxo-N-(4-phenylbutyl)-4,5,6,7-tetrahydrooxazolo[5,4-c]pyridine-1-carboxamide Hydrochloride]: in data set [1], the half-life at 2 μM was > 2 h. Moreover, the solubility at 1 h in data set [2] came out at 230 µM. In data set [3] (PBS at pH 7.4), the half-life at 1 μM was > 8 h. Further, on AC (setting [4]), the IC50 came out at 341 ± 12 nM.

For `O=C(NCCCCc1ccccc1)n1c2c(oc1=O)CCNC2` [12b, 2-Oxo-N-(4-phenylbutyl)-4,5,6,7-tetrahydrooxazolo[4,5-c]pyridine-3-carboxamide Hydrochloride], the half-life at 2 μM in data set [1] was > 2 h. Besides, the solubility at 1 h in data set [2] was determined as 82 µM. In addition, in data set [3] (PBS at pH 7.4), the half-life at 1 μM is > 8 h. Moreover, at AC (setting [4]), the IC50 came out at 247 ± 156 nM.

For the molecule `O=C(NCCCCc1ccccc1)n1c(=O)oc2ccncc21` [8a, 2-Oxo-N-(4-phenylbutyl)oxazolo[4,5-c]pyridine-3-carboxamide], the half-life at 1 μM in data set [3] (PBS, pH 7.4) was < 0.25 h. The IC50 at AC (read-out: hAC IC50) came out at 6 nM.
